For two molecules, IC50 results are on record in ChEMBL document CHEMBL5727793, “Covalent inhibitors of PAD4” (2020).

A word on the IC50: it is the concentration that gives 50% inhibition.

The nature of this test: RapidFire Mass Spectrometry (RFMS) Activity Assay: Compounds were solubilized in 100% DMSO to achieve 100 mM final compound concentration. Compound stock solutions were stored at RT. A series of dilutions were prepared in DMSO and mixed 8 times with 20 μL mixing volume. […] After 5 mins, 10 μL of 100 μM of substrate in buffer (100 mM Tris-HCl pH 7.6, 2 mM DTT, 2 mM CaCl2) was added and the reaction incubated for 60 mins at 37° C. The enzymatic reaction was quenched by addition of 40 μl of 5% TCA in ACN (1.7% TCA final concentration) stop solution. Arginine containing substrate and citrulline containing product (+1 Da mass shift) were subjected to solid phase extraction on Agilent RapidFire (RF) 300 system and detected on a coupled, triple quadrupole Agilent 6460 QQQ mass spectrometry (MS) device under application of multiple reaction monitoring (MRM) for quantitation.

Where only a bound is given, the exact number is not on record here.

Turning to `CN(C)C/C=C/C(=O)N[C@H]1CCN(C(=O)c2ccc3c(c2)nc(-c2cc4cccnc4n2CC2CC2)n3C)C[C@H]1N`, the IC50 is > 10 µM.

Take `CN(C)C/C=C/C(=O)N[C@@H]1C[C@H](N)CN(C(=O)c2ccc3c(c2)nc(-c2cc4cccnc4n2CC2CC2)n3C)C1`: the IC50 was > 10 µM.
